Laboratory results taken from patent US20240335428A1, “PATEAMINE A DERIVATIVE FOR TREATING PANCREATIC CANCER” (Baylor University, priority 2023, published 2024).

What was measured:
CD44 = CD44 level (anti-CD44 confocal imaging, western blot); format: cell-based; details: MIA PaCa-2 cells, 5 nM DMPatA, 24 h, CTCF (P<0.05)
Procedure: (§1) CD44 is the cell surface receptor for hyaluronic acid. Dense stroma with high levels of hyaluronic acid and extracellular matrix are among factors that are said to contribute to drug resistance in PDAC due to reduced permeability of anticancer therapies. Reduction of CD44 could facilitate the activity of chemotherapy or other combination therapy. MIA PaCa-2 cells were treated with 5 nM of DMPatA for 24 h versus untreated control. Cells were stained for HA using biotinylated-HABP and anti-CD44. FIG. 6A compares the analysis of the corrected total cell fluorescence (CTCF) based on data extracted from confocal imaging (P<0.05) and FIG. 6B compares western blot showing the effect of DMPatA and DMDAPatA on stromal proteins HAS3 and CD44. In the figures, MZ and MZ735 are DMPatA and PatA is DMDAPatA.
(§2) MIA PaCa-2 cells were treated with 5 nM of DMPatA for 24 h versus untreated control. Cells were stained for HA using biotinylated-HABP and anti-CD44. FIG. 6A compares the analysis of the corrected total cell fluorescence (CTCF) based on data extracted from confocal imaging (P<0.05) and FIG. 6B compares western blot showing the effect of DMPatA and DMDAPatA on stromal proteins HAS3 and CD44.

hyaluronic acid = test: Hyaluronic acid staining (biotinylated-HABP, confocal imaging, CTCF); format: cell-based; details: MIA PaCa-2 cells, 5 nM DMPatA, 24 h versus untreated control, CTCF (P<0.05)
Procedure: as §1, §2

[1] = compared with parent natural product PatA; cited from earlier work
c-MYC = test: Western blot of oncoproteins in PDAC cell lines; format: cell-based; details: PDAC cell lines MIA PaCa-2 and AsPC-1, western blot
Source text: (§3) FIGS. 3A and 3B are images of western blots showing the effect of DMDAPatA and DMPatA in PDAC cell lines (MiaPaca-2 and AsPc-1). In the figures, MZ735 is DMPatA and PatA is DMDAPatA.
(§4) FIGS. 5A and 5B are images of western blots showing the effect of DMPatA and DMDAPatA on oncoproteins c-MYC and Cyclin D1 in PDAC cell lines: MIA PaCa-2; PANC-1; Capan-1; and AsPC-1. In the figures, MZ is DMPatA and PatA is DMDAPatA.
(§5) eIF4A inhibitors selectively repress the expression levels of key proteins in PDAC cell lines. FIGS. 3A and 3B are images of western blots showing the effect of DMDAPatA and DMPatA in PDAC cell lines (MIA PaCa-2 and AsPC-1). […] These proteins are commonly used as controls in western blot analysis and are so-called because they are typically not susceptible to agents that alter gene or protein expression.
(§6) FIGS. 5A and 5B are images of western blots showing the effect of DMPatA and DMDAPatA on oncoproteins c-MYC and Cyclin D1 in PDAC cell lines: MIA PaCa-2; PANC-1; Capan-1; and AsPC-1.

Cyclin D1 = test: Western blot of oncoproteins in PDAC cell lines; format: cell-based; details: PDAC cell lines MIA PaCa-2 and AsPC-1, western blot
Source text: as §3, §4, §5, §6

[2] = system: PDAC cell lines: MIA PaCa-2; PANC-1; Capan-1; AsPC-1; test: Cell proliferation / viability assay (CellTiter-Glo); format: cell-based; details: for cell proliferation (viability): PDAC cells, 48 h and 72 h, Cell-Titer Glo
Procedure: FIGS. 2A-2D are viability curves of DMDAPatA and DMPatA in four representative PDAC cell lines: MIA PaCa-2; Panc-1; Capan-1; and AsPC-1. PDAC cell lines were treated with DMPatA and DMDAPatA at the indicated concentrations for 48 h and 72 h. Cell viability was determined using Cell-Titer Glo (Promega). Viability (%, Y-axis) was plotted against drug concentration (log nM, X-axis). In the figures, MZ is DMPatA and PatA is DMDAPatA.
See Example 2. FIGS. 2A-2D are viability curves of DMDAPatA and DMPatA in four representative PDAC cell lines: MIA PaCa-2; PANC-1; Capan-1; and AsPC-1.
In this example, the effectiveness of DMPatA and DMDAPatA in reducing the proliferation of PDAC cancer cell lines is described.
Cell viability was measured using CellTiter-Glo® reagent (Promega, #G7570), according to the manufacturer's instructions. Briefly, cells were seeded at a density of […] in white 96-well plates and allowed to grow overnight. Cells were then treated with/without the combination and single agents as described earlier and incubated 37° C. and 5% CO2 for appropriate time points. After incubation assay reagent was added to the cells and luminescent signal values were quantified using microplate reader (PHERAstar® FS, BMG LABTECH, Ortenberg, Germany).

[3] = Protein binding in human plasma; format: in vitro ADME
Mia-Paca-2 cells = test: Mouse xenograph model (subcutaneous Mia-Paca-2 tumors); format: in vivo, female athymic nude mice
Source text: In this example, the effectiveness of DMPatA in reducing tumor size in a mouse xenograph model is described.
Intraperitoneal therapy for PDAC. One of the most difficult complications of pancreatic cancer is the development of peritoneal carcinomatosis, which may occur as the presenting manifestation of PDAC, much as occurs with ovarian cancer, or may appear late in the course of the disease. In either case, the prognosis for peritoneal carcinomatosis and cytology-positive ascites is grim, at times portending survival of only a few weeks. […] The second major problem is that recurrent ascites requires frequent large volume paracentesis—which depletes the patient of protein and nutrients. […] Des-methyl pateamine A (DMPatA, MZ735) can be used as a novel intraperitoneal therapy able to directly treat intraperitoneal carcinomatosis. In certain embodiments, the safe intraperitoneal dose is 0.075-0.1 mg/kg, as established in a mouse xenograpgh model.
Fifteen female athymic nude mice were implanted with 5×10^6 Mia-Paca-2 cells, injected subcutaneously into the right flank with 50% Matrigel. Once tumors reached 100-200 mm^3 in volume, mice were randomized and enrolled into the study with three treatment groups including vehicle, MZ735 0.075, MZ735 0.1 mg/kg.
Mice were dosed once every four days interperitoneally (IP) for 28 days. Weights were taken twice per week to ensure overall health. All formulations were prepared on a day prior to, or on the day of dosing, using a serial dilution method and stored at 4° C. Formulations for this study were made using a vehicle of 10% Ethanol, 10% Cremophor EL, 4% glucose, and 76% PBS.
Body weights and tumor measurements were recorded twice weekly per OPTIC core-Tumor Growth Measurement at Columbia University.
At the end of the study mice were euthanized via CO2 asphyxiation, per IACUC approved Euthanasia protocol at Columbia University.

GAPDH and beta-actin = test: Western blot of housekeeping proteins; format: cell-based; details: PDAC cell lines
Source text: as §3, §5

## CC(/C=C/C(C)=C/[C@@H]1Cc2nc(cs2)CCCCC(=O)O[C@@H](C)C/C(C)=C/C=C\C(=O)O1)=C\CN(C)C [DMDAPatA, des-methyl des-amino pateamine A]
CD44
  levels of CD44: reduce the levels
Hyaluronic acid
  levels of hyaluronic acid: reduce the levels
[1]
  stability relative to PatA: more stable
c-MYC
  protein level of c-MYC: inhibiting the protein level
Cyclin D1
  protein level of Cyclin D1: inhibiting the protein level
[2]
  cell proliferation (viability): inhibit cell proliferation
[3]
  protein binding in human plasma: highly protein bound

## des-methyl pateamine A [DMPatA]
CD44
  levels of CD44: reduce the levels
Hyaluronic acid
  levels of hyaluronic acid: reduce the levels
Mia-Paca-2 cells; 0.075-0.1 mg/kg IP once every four days for 28 days, Mia-Paca-2 xenograft
  volume of subcutaneously implanted tumors: reduce the volume of subcutaneously implanted tumors
Mia-Paca-2 cells; intraperitoneal dose 0.075-0.1 mg/kg, mouse
  absorption via the peritoneum: can be absorbed via the peritoneum
Mia-Paca-2 cells; mouse xenograph model, intraperitoneal
  safe intraperitoneal dose: 0.075 to 0.1 mg/kg
c-MYC
  protein level of c-MYC: inhibiting the protein level
Cyclin D1
  protein level of Cyclin D1: inhibiting the protein level
GAPDH and beta-actin
  expression of housekeeping proteins GAPDH and beta-actin: stably expressed
[2]
  cell proliferation (viability): inhibit cell proliferation
[2]; viability curves in four PDAC cell lines
  potency relative to DMDAPatA: greater potency relative to DMDAPatA
